Read-outs that look alike come from different tables or passages of the source.
Tests used:
ALDH1A2 [1] = biological target: T1, ALDH1A2 (Homo sapiens, UniProt O94788); experiment: Cell-based enzyme assay, retinoic acid production in ALDH1A2/H1299 cells
T1 sequence (O94788 1-518): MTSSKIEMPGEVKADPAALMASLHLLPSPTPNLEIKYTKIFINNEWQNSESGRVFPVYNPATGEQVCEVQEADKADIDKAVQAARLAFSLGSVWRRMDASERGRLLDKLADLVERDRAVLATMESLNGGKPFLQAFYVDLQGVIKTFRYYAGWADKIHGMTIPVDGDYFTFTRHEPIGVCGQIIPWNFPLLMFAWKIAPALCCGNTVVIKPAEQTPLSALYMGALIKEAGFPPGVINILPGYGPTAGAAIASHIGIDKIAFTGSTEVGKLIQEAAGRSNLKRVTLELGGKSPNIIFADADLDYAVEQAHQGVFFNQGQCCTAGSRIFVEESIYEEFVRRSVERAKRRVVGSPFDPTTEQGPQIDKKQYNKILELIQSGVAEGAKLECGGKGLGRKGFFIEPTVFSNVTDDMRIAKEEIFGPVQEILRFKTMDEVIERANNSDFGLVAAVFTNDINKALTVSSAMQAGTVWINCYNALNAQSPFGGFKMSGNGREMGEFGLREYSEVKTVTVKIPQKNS
Description: (§1) ALDH1A1 cDNA clone was purchased transfection-ready, and ALDH1A2 full-length cDNA was subcloned into pcDNA3, a mammalian expression vector. ALDH1A1 and ALDH1A2 were transfected into H1299 cells (CRL5803, ATCC) using Lipofectamine 3000 (Invitrogen) following the manufacturer's instructions. Stably transfected cells were selected with G418 (1.2 mg/ml) and referred to as ALDH1A1/H1299 and ALDH1A2/H1299. For the cell-based enzyme assays,
(§2) H1299 cells were routinely grown in RPMI-1640 (ATCC) supplemented with 10% fetal bovine serum (Atlanta Biologicals) in a 37 C, 5% CO2, moisture-saturated atmosphere. H1299, ALDH1A1/H1299 and ALDH1A2/H1299 cells were seeded into 12-well plates (1×10^5 cells/well) and grown for 2 days to confluence. Confluent cells were treated for 20 hours in the above media excluding serum with 2 μM all-trans-retinal, and varying concentrations of inhibitors. Serum-free media was used for the treatment period to avoid retinoic acid in serum. Retinoic acid concentrations were determined from cells and media, and specificity of inhibitors was determined by comparing retinoic acid levels in the presence and absence of the inhibitors in ALDH1A1- vs. ALDH1A2-expressing cells.

ALDH1A2 [2] = biological target: T1, ALDH1A2; experiment: Inhibitor screening using purified enzymes: ALDH1A2 activity, retinoic acid production by HPLC (5 uM initial screen, then IC50); type: biochemical; parameters: histidine-tag (C); made in house; host or cells: bacterial expression (pET28 vector, IPTG induction); details: purified enzyme
Outline: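 Purified His-tagged human enzymes in 10 mM HEPES pH 8.0, 150 mM KCl, 2 mM EDTA with 2 mM NAD, all-trans-retinal substrate; retinoic acid quantified by HPLC. ALDH1A2 initial screen: 1 μg enzyme, 5 μM retinal, 5 μM inhibitor, 15 min, 37° C; IC50 runs: 0.5 μg enzyme, 0.5 μg retinal, 5 min, 37° C.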

ALDH1A1 [3] = biological target: T2, ALDH1A1 (Homo sapiens, UniProt P00352); experiment: Cell-based enzyme assay, retinoic acid production in ALDH1A1/H1299 cells
T2 sequence (P00352 1-501): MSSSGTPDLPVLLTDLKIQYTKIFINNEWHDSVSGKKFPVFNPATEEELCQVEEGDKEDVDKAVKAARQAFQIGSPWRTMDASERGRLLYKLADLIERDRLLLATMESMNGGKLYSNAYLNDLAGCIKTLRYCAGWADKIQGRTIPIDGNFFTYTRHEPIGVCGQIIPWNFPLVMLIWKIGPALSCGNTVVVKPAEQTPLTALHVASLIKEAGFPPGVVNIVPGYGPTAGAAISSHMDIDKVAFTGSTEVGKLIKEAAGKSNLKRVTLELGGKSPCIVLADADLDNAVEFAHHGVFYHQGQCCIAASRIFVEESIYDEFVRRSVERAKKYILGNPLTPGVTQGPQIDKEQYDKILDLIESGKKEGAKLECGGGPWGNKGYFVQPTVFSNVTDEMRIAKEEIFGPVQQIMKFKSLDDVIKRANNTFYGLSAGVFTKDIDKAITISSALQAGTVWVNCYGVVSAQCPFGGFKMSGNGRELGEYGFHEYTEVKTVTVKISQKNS
Description: as §1, §2

ALDH1A1 [4] = biological target: T2, ALDH1A1; experiment: Inhibitor screening using purified enzymes: ALDH1A1 activity, retinoic acid production by HPLC; type: biochemical; details: purified enzyme
Source text: ALDHs were cloned into bacterial expression vector for in vitro enzyme assays and into mammalian expression vectors for cell-based enzyme assays. Human ALDH1A1 cDNA and human ALDH2 cDNA were purchased from OriGene (SC321535) and Open Biosystems (MHS4771-99611182), respectively. and human ALDH1A2 cDNA was cloned from human testis RNA using RT-PCR (Population Division of the Department of Economic and Social Affairs of the United Nations Secretariat. World Population prospects: the 2008 revision. Available at http://www.un.org/esa/population/ (Retrieved Sep. 30, 2011)). For bacterial expression, an open reading frame of ALDH1A1 and ALDH2 were subcloned into the pETite vector (Lucigen) with a 5′ histidine-tag and that of ALDH1A2 into a pET28 vector (Novagen) with a 3′ histidine-tag. Correct frame and sequences were verified through DNA sequencing (UW DNA sequencing facility). ALDHs were induced with 1 mM IPTG and purified using His.Bind resin (Novagen, San Diego, Calif.) and stored in a buffer containing 20 mM Hepes (pH 8), 150 mM KCl and 1 mM EDTA as previously described (Fierce, Y., de Morais Vieira, M., Piantedosi, R., Wyss, A., Blaner, W. S., and Paik, J. (2008) In vitro and in vivo characterization of retinoid synthesis from beta-carotene. Archives of biochemistry and biophysics 472, 126-138).
ALDH1A1 and ALDH1A2 activity was determined as previously reported (Beedle M T, Stevison F, Zhong G, Topping T, Hogarth C, Isoherranen N, Griswold M D. Sources of All-Trans Retinal Oxidation Independent of the Aldehyde Dehydrogenase 1A Isozymes Exist in the Postnatal Testis. Biol Reprod. 2018 Sep. 21. doi: 10.1093/biolre/ioy200). Briefly, purified enzymes were incubated in a buffer containing 10 mM HEPES buffer (pH 8.0), 150 mM potassium chloride and 2 mM EDTA with 2 mM NAD. Retinoic acid production was determined using HPLC as previously reported (Amory J K, Muller C H, Shimshoni A J, Isoherranen N, Paik J, Moreb J S, Amory D W, Evanoff R, Goldstein A S, Griswold M D. Suppression of spermatogenesis by bisdichloroacetyldiamines is mediated by inhibition of testicular retinoic acid biosynthesis. Journal of Andrology 2011; 32(1):111-119). Inhibitors were diluted in DMSO and added to the reactions. […] For initial screening of inhibitors for ALDH1A2, 1 μg ALDH1A2, 5 μM all-trans-retinal and 5 μM inhibitors were incubated for 15 min at 37° C. […] For this purpose, 0.5 μg ALDH1A2 and […] were incubated for 5 minutes at 37° C. with varying concentrations of inhibitors. To determine specificity toward ALDH1A2, the IC50 for […]

ALDH2 = biological target: T3, ALDH2 (Homo sapiens, UniProt P05091); experiment: Purified ALDH2 assay with propanal, NADH fluorescence; type: biochemical; details: purified enzyme
T3 construct: histidine-tag (N); made in house; host or cells: bacterial expression (pETite vector, IPTG induction)
T3 sequence (P05091 18-517): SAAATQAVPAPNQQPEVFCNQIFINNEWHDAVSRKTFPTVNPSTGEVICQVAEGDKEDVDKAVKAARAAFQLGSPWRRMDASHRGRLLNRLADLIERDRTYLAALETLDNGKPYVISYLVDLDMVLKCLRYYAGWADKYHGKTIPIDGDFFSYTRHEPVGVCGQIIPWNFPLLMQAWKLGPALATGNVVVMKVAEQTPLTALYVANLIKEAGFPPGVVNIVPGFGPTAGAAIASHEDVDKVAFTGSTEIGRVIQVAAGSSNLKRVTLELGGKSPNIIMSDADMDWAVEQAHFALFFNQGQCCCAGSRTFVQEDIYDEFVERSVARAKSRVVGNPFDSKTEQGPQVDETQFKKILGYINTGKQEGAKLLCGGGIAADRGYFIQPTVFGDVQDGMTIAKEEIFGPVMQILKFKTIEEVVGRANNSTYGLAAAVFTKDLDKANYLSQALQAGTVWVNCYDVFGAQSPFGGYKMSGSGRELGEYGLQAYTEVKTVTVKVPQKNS
Outline: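 His-tagged human ALDH2 expressed in bacteria and purified. 2 μg enzyme incubated with 20 μM propanal and varying inhibitor concentrations at room temperature. Activity read as NADH fluorescence (Ex 350/Em 460 nm), with initial velocity from two consecutive readings over 1 minute.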

mice = details: cited from earlier work

Row | Compound | EC50 (ALDH1A2 [1]; cell-based) | IC50 (ALDH1A2 [2]) | EC50 (ALDH1A1 [3]; cell-based) | IC50 (ALDH1A1 [4]) | IC50 (ALDH2) | EC50 (ALDH1A2 [1]) | EC50 (ALDH1A1 [3]) | fertility (mice; mice, oral) | liver toxicity (mice; mouse, in vivo) | effect on spermatogenesis (mice; oral doses as low as 5 mg/kg for seven days)
1 | 3-{4-[(Difluoroacetyl)amino]phenyl}-1-(4-cyanophenyl)-N-(3-fluorophenyl)-1H-pyrazole-4-carboxamide [Compound 279] | 0.017 µM | 0.61 µM | 0.056 µM | 0.029 µM | – | – | – | – | – | –
2 | O=C(Nc1cccc(F)c1)c1cn(-c2ccccc2)nc1-c1ccc(CNC(=O)C(Cl)Cl)cc1 [Compound 8-64, 3-(4-{[(Dichloroacetyl)amino]methyl}phenyl)-N-(3-fluorophenyl)-1-phenyl-1H-pyrazole-4-carboxamide] | – | 0.015 µM | – | 2 µM | – | – | – | – | – | –
3 | Cc1ccc(NC(=O)c2cn(-c3ccccc3)nc2-c2ccc(F)cc2)cc1 [Compound 131, 3-(4-Fluorophenyl)-N-(4-methylphenyl)-1-phenyl-1H-pyrazole-4-carboxamide] | – | 3.02 µM | – | 0.388 µM | 18.8 µM | – | – | – | – | –
4 | Cc1ccccc1-c1nn(-c2ccccc2)cc1C(=O)Nc1cccc(F)c1 [Compound 149, N-(3-Fluorophenyl)-3-(2-methylphenyl)-1-phenyl-1H-pyrazole-4-carboxamide] | – | 2.15 µM | – | 0.601 µM | 4.6 µM | – | – | – | – | –
5 | CON(C)C(=O)c1ccc(-c2nn(-c3ccc(C#N)cc3)cc2C(=O)Nc2cccc(F)c2)cc1 [Compound 296] | 0.023 µM | 0.15 µM | 0.542 µM | 9.44 µM | – | – | – | – | – | –
6 | N#Cc1ccc(-n2cc(C(=O)Nc3cccc(F)c3)c(-c3ccc(NC(=O)C(Cl)Cl)cc3)n2)cc1 [Compound 310, 3-{4-[(Dichloroacetyl)amino]phenyl}-1-(4-cyanophenyl)-N-(3-fluorophenyl)-1H-pyrazole-4-carboxamide] | 0.245 µM | 0.065 µM | 0.14 µM | 0.009 µM | – | – | – | – | – | –
7 | C=C(C(=O)OC)c1ccc(-c2nn(-c3ccc(C#N)cc3)cc2C(=O)Nc2cccc(F)c2)cc1 [Compound 312, Methyl 2-(4-{4-[(3-fluorophenyl)carbamoyl]-1-4-cyanophenyl-1H-pyrazol-3-yl}phenyl)prop-2-enoate] | 12.5 µM | 1.2 µM | 0.251 µM | 3.61 µM | – | – | – | – | – | –
8 | CC(=O)c1ccc(-c2nn(-c3ccc(C#N)cc3)cc2C(=O)Nc2cccc(F)c2)cc1 [Compound 316, 3-(4-Acetylphenyl)-N-(3-fluorophenyl)-1-(4-cyanophenyl)-1H-pyrazole-4-carboxamide] | 0.123 µM | 0.6 µM | 0.28 µM | 10.2 µM | – | – | – | – | – | –
9 | Cn1cccc1C(=O)N1CCN(c2ccc(N)c(N3CCCCCC3)c2)CC1 [Compound 379, {4-[4-Amino-3-(azepan-1-yl)phenyl]piperazin-1-yl}(1-methyl-1H-pyrrol-2-yl)methanone] | – | 2.58 µM | – | 0.714 µM | – | 2.58 µM | 0.736 µM | – | – | –
10 | Cn1cccc1C(=O)N1CCN(c2ccc(NC(=O)C(Cl)Cl)c(N3CCCCC3)c2)CC1 [Compound 380, {4-[4-Dichloroacetamido-3-(piperidin-1-yl)phenyl]piperazin-1-yl}(1-methyl-1H-pyrrol-2-yl)methanone] | – | 8.7 µM | – | 0.023 µM | – | > 5 µM | 0.099 µM | – | – | –
11 | BMS-189453 | – | – | – | – | – | – | – | infertile after four weeks of treatment | hepatic inflammation | potently inhibits spermatogenesis

From patent US11548875B2, “Inhibitor compounds for male contraception” (University of Washington, priority 2018, dated 2023)
